In brackets after ≈: the same amount, converted by molar mass.
Tests used:
[1] = system: MCF7; experiment: Cytotoxicity against human MCF7 cells after 7 days by MTT assay; assay type: functional; conditions: MCF7, 168 h, read-out: ED50 (the source's name)
[2] = system: MIA PaCa-2; experiment: Cytotoxicity against human MIAPaCa2 cells after 7 days by MTT assay; assay type: functional; conditions: MIA PaCa-2, 168 h, read-out: ED50 (the source's name)
[3] = system: PC-3; experiment: Cytotoxicity against human PC3 cells after 7 days by MTT assay; assay type: functional; conditions: PC-3, 168 h, read-out: ED50 (the source's name)
[4] = system: HT-29; experiment: Cytotoxicity against human HT29 cells after 7 days by MTT assay; assay type: functional; conditions: for EC50: Homo sapiens, HT-29, 168 h, read-out: ED50 (the source's name)
[5] = system: A549; experiment: Cytotoxicity against human A549 cells after 7 days by MTT assay; assay type: functional; conditions: A549, 168 h, read-out: ED50 (the source's name)
[6] = system: A498; experiment: Cytotoxicity against human A498 cells after 7 days by MTT assay; assay type: functional; conditions: A498, 168 h, read-out: ED50 (the source's name)
[7] = Toxicity in brine shrimp larvae; assay type: organism-based; conditions: artemia, in vivo

COc1cccc2c1C(=O)c1c(O)c3c(c(O)c1C2=O)C[C@@](O)(C(=O)CO)C[C@@H]3O[C@H]1C[C@H](N)[C@H](O)[C@H](C)O1 [DOXORUBICIN]
EC50 [1]: 0.209 µg/mL (≈ 0.385 µM)
EC50 [2]: 0.0079 µg/mL (≈ 0.0145 µM)
EC50 [3]: 0.0262 µg/mL (≈ 0.0482 µM)
EC50 [4]: 0.0346 µg/mL (≈ 0.0637 µM)
EC50 [5]: 0.0243 µg/mL (≈ 0.0447 µM)
EC50 [6]: 0.00649 µg/mL (≈ 0.0119 µM)

CCCCCCCCCCCCCCC(Cl)[C@@H]1CC[C@H]([C@@H]2CC[C@@H](CCCCC[C@H](Cl)CC3=C[C@H](C)OC3=O)O2)O1 (stereo not given in full)
EC50 [1]: > 10 µg/mL
LC50 [7]: 31.9 µg/mL (≈ 51.8 µM)
EC50 [2]: 1.16 µg/mL (≈ 1.88 µM)
EC50 [3]: 0.755 µg/mL (≈ 1.23 µM)
EC50 [4]: > 10 µg/mL
EC50 [5]: 2.39 µg/mL (≈ 3.88 µM)
EC50 [6]: 2.47 µg/mL (≈ 4.01 µM)

CCCCCCCCCCCCCC[C@H](O)[C@@H]1CC[C@@H]([C@@H]2CC[C@@H](CCCCC[C@@H](O)CC3=C[C@H](C)OC3=O)O2)O1 [ASIMILOBIN]
EC50 [4]: 0.063 µg/mL (≈ 0.109 µM)

CCCCCCCCCCCCCC[C@@H](O)[C@H](O)CC[C@H](O)[C@@H]1CC[C@@H](CCCCC[C@@H](O)CC2=C[C@H](C)OC2=O)O1 [GIGANTETROCIN A]
EC50 [1]: 0.63 µg/mL (≈ 1.06 µM)
LC50 [7]: 2.6 µg/mL (≈ 4.36 µM)
ED50 [4]: 4.1 ×10⁻⁵ ug/ml
EC50 [5]: 0.25 µg/mL (≈ 0.419 µM)

CCCCCCCCCCCCCC[C@@H](O)[C@H](O)CC[C@H](O)[C@@H]1CC[C@@H](CCCCC[C@H](Cl)CC2=C[C@H](C)OC2=O)O1
EC50 [1]: 5.74 µg/mL (≈ 9.33 µM)
LC50 [7]: 54.6 µg/mL (≈ 88.7 µM)
EC50 [2]: > 10 µg/mL
EC50 [3]: > 10 µg/mL
EC50 [4]: 0.38 µg/mL (≈ 0.618 µM)
EC50 [5]: > 10 µg/mL
EC50 [6]: > 10 µg/mL

Source: ChEMBL document CHEMBL1158306, “Chlorinated annonaceous acetogenins and their bioactivities” (J Nat Prod, 1996)
